Measurements as given in ChEMBL document CHEMBL1156969 (Bioorg Med Chem Lett, 2010).
Calls of active or inactive are those of the source. The rule behind the calls is not given here.

What was measured:
[1] = target: T1, Melatonin receptor type 1B (Homo sapiens) (UniProt P49286); test: Agonist activity at human MT2 receptor expressed as CHO cells assessed as intracellular Ca2+ accumulation by FLIPR assay; type: functional, cell-based
T1 sequence (whole entry): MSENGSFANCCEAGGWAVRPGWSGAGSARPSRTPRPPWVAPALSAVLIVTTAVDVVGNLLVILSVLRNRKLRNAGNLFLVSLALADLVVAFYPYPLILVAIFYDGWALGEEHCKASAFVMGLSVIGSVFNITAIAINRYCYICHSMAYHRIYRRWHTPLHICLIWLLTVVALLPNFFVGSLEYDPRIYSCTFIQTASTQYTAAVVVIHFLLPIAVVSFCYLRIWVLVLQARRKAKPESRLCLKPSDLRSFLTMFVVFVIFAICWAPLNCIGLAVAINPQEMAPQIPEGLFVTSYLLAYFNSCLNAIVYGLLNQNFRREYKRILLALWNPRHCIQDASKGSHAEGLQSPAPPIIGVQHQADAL

[2] = target: T2, Melatonin receptor type 1B (Homo sapiens, UniProt P49286); test: Displacement of [3H]melatonin from human melatonin MT2 receptor expressed in CHO cells after 60 mins by scintillation counting; type: cell-based
T2 sequence (P49286 whole entry): T1 sequence (whole entry)

[3] = target: Melatonin receptor type 1A (Homo sapiens, UniProt P48039); test: Displacement of [3H]melatonin from human melatonin MT1 receptor expressed in CHO cells after 60 mins by scintillation counting; type: cell-based
Sequence of Melatonin receptor type 1A (P48039 whole entry): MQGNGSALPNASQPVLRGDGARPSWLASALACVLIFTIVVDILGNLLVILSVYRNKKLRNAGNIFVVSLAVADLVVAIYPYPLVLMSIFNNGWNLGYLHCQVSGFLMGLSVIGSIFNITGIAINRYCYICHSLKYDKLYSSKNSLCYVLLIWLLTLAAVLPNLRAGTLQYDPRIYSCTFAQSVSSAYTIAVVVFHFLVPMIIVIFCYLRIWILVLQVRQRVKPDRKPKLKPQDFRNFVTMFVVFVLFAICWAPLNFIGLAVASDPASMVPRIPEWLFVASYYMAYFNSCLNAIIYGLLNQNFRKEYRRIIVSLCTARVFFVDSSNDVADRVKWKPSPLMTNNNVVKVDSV

Homo sapiens = organism: Homo sapiens; test: Selectivity ratio of Ki for human melatonin MT1 receptor to Ki for human melatonin MT2 receptor
[4] = Lipophilicity, log P of the compound; type: physicochemical; conditions: octanol/water

Activity [1] | Ki [2] | Ki [3] | Ratio Ki (Homo sapiens) | logP [4] | Compound
Active | 0.00103 nM | 1170 nM | 1.14e+06 | – | CCCC(=O)NCCCc1cc(OC)ccc1OCc1ccccc1
– | 12.6 nM | 257 nM | 20.5 | – | COc1cc(CCCNC(C)=O)ccc1O
– | 2.12 nM | 400 nM | 189 | – | CCCOc1ccc(OC)cc1CCCNC(C)=O
– | 69.3 nM | 8980 nM | 130 | – | COc1cc(CCCNC(C)=O)ccc1OCc1ccccc1
– | 105 nM | 1460 nM | 13.9 | – | COc1cccc(COc2ccc(CCCNC(C)=O)cc2OC)c1
– | 2300 nM | – | – | – | COc1ccc(OCc2ccccc2)c(CCCNC(=O)c2ccccc2)c1
Active | 0.00055 nM | 263 nM | 473000 | – | CCC(=O)NCCCc1cc(OC)ccc1OCc1ccccc1
– | 102 nM | – | – | – | COc1ccc(OCc2ccc(Br)cc2F)c(CCCNC(C)=O)c1
– | – | – | – | 2.16 | COc1ccc2[nH]cc(CCNC(C)=O)c2c1 [MELATONIN]
– | 0.751 nM | 23.3 nM | 31 | – | COc1cccc(CCCNC(C)=O)c1
– | 121 nM | 2010 nM | 16.7 | – | CCC(=O)NCCCc1ccc(OCc2ccccc2)c(OC)c1
– | 1.61 nM | 1840 nM | 1150 | – | COc1ccc(OCc2ccccn2)c(CCCNC(C)=O)c1
– | – | 705 nM | – | – | COc1cccc(COc2ccc(OC)cc2CCCNC(C)=O)c1
– | 26.1 nM | 1280 nM | 49.1 | – | COc1ccc(OC)c(CCCNC(C)=O)c1
– | 27.9 nM | 2700 nM | 97 | – | COc1ccc(COc2ccc(OC)cc2CCCNC(C)=O)cc1
– | 72.2 nM | – | – | – | COc1ccc(OCCCc2ccccc2)c(CCCNC(C)=O)c1
– | 46.2 nM | 379 nM | 8.22 | – | COc1ccc(O)c(CCCNC(C)=O)c1
– | 0.0471 nM | 879 nM | 18700 | – | COc1ccc(OCc2ccccc2)c(CCCNC(C)=O)c1
– | 0.0326 nM | – | – | – | COc1cc(COc2ccc(OC)cc2CCCNC(C)=O)cc(OC)c1
– | 13.4 nM | 2930 nM | 219 | – | COc1ccc(OCCc2ccccc2)c(CCCNC(C)=O)c1
– | 7.07 nM | 85.4 nM | 12 | – | CCC(=O)NCCCc1cccc(OC)c1
– | 1.59 nM | 183 nM | 116 | – | CCOc1ccc(OC)cc1CCCNC(C)=O
